Each structure is given as a SMILES string. pIC50: −log10 of the molar value. Read-outs that look alike come from different tables or passages of the source. Where only a bound is given, the exact number is not on record here.

Our source for the IC50 values is patent publication US20260325533A1, “CDK INHIBITOR COMPOUNDS” (ALEKSIA THERAPEUTICS, INC., priority 2023, published 2026).

Common to all, as to assay type: biochemical
One assay deals with CDK1/CCNB1 (Homo sapiens, UniProt P06493). Briefly: CDK1 homogeneous time-resolved fluorescence (HTRF) kinase assay. Particulars: CDK1/CCNB. A digest of the protocol:
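CDK1/CCNB1 0.5 nM + cpd, 20 min 23 °C; add 1 mM ATP, 50 nM ULight-4E-BP1 peptide, 60 min 23 °C; stop 10 mM EDTA; 2 nM Eu-Ab, 60 min; HTRF 665 nm. 11-pt half-log, top 10 μM typical; IC50.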
On the technique in general: Time-resolved FRET reads energy transfer from a long-lived donor to a nearby acceptor.

In a further assay the target is CDK6/CCND1 (Homo sapiens, UniProt Q00534). The assay is described as follows: CDK6 homogeneous time-resolved fluorescence (HTRF) kinase assay. Particulars: CDK6/CCND. In short, it runs like this: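 Enzyme pre-incubated 20 min at 23 °C with compound, then reacted 60 min at 23 °C with 1 mM ATP and 50 nM ULight-4E-BP1 (Thr37/46) peptide; 1 nM enzyme, 1% DMSO. EDTA-stopped, Eu-anti-phospho antibody TR-FRET read (665 nm or 665/615 ratio); 11-point half-log titration from 10 μM gave IC50.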

For the next assay, the target named is CDK2/CCNE1 (Homo sapiens, UniProt P24941). The assay is described as follows: CDK2 homogeneous time-resolved fluorescence (HTRF) kinase assay. The following applies: CDK2/CCNE. A digest of the protocol: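 3 nM CDK2/CCNE1 was preincubated with compound for 20 min at 23 °C in HEPES buffer (pH not stated), then reacted 60 min with 1 mM ATP and 50 nM ULight-4E-BP1 (Thr37/46) peptide. After EDTA stop, Eu-anti-phospho-4E-BP1 antibody (2 nM) was added for 60 min and TR-FRET read at 665 nm.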

For another assay, the target named is CDK4/CCND3 (Homo sapiens, UniProt P11802). The assay is described as follows: CDK4 homogeneous time-resolved fluorescence (HTRF) kinase assay. The following applies: CDK4/CCND. In short, it runs like this: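 CDK4/CCND3 at 1.5 nM was preincubated with compound for 20 min at 23 °C, then reacted for 60 min with 1 mM ATP and 50 nM ULight-4E-BP1 (Thr37/46) peptide. The reaction was stopped with EDTA, and phosphorylation was read by HTRF with a Eu-anti-phospho antibody. IC50 values came from 11-point half-log titrations, typically from 10 μM.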

The mark [1] stands for this setting: x = IC50 25-250 nM, read-out: CDK1/CCNB IC50 (25-250 nM).
The mark [2] stands for this setting: x = IC50 >250 nM, read-out: CDK6/CCND IC50 (>250 nM column).
The mark [3] stands for this setting: x = IC50 <25 nM, read-out: CDK2/CCNE IC50 (<25 nM).
[4] abbreviates: x = IC50 >250 nM, read-out: CDK4/CCND IC50 (>250 nM column).
The mark [5] stands for this setting: x = IC50 >250 nM, read-out: CDK1/CCNB IC50 (>250 nM column).
The mark [6] stands for this setting: x = IC50 25-250 nM, read-out: CDK2/CCNE IC50 (25-250 nM).
Where [7] appears, read: x = IC50 25-250 nM, read-out: CDK4/CCND IC50 (25-250 nM).
Where [8] appears, read: x = IC50 >250 nM, read-out: CDK2/CCNE IC50 (>250 nM column).

Chain of CDK1/CCNB1 (P06493 whole entry): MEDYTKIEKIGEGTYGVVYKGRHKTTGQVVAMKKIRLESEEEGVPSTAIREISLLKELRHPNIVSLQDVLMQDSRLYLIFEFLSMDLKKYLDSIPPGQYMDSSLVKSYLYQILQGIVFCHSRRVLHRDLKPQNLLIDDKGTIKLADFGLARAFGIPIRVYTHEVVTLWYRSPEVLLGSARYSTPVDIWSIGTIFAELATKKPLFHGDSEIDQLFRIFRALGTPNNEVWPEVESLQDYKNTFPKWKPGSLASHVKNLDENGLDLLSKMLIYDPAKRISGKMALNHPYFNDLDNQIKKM
Chain of CDK1/CCNB1 (P14635 whole entry partner): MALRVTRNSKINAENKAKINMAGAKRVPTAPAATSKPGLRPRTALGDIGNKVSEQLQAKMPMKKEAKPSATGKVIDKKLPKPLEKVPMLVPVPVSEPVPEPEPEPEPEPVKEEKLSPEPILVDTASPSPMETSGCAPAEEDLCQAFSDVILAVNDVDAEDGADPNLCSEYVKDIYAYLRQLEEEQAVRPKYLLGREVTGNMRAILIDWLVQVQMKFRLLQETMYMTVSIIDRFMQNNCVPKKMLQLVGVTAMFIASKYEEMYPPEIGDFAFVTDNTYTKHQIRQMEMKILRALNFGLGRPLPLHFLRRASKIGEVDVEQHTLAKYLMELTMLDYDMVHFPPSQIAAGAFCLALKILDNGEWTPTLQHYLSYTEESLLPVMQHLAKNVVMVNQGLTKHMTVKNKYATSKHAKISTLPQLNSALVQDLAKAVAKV
Chain of CDK4/CCND3 (P11802 whole entry): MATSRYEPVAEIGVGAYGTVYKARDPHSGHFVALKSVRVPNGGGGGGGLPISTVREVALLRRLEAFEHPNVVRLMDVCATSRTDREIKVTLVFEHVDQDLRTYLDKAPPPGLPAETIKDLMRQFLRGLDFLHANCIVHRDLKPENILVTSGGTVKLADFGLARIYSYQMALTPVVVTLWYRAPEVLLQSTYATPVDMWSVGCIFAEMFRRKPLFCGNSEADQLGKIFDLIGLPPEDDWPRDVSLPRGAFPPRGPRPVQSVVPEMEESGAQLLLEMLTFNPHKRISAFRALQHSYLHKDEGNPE
Chain of CDK4/CCND3 (P30281 whole entry partner): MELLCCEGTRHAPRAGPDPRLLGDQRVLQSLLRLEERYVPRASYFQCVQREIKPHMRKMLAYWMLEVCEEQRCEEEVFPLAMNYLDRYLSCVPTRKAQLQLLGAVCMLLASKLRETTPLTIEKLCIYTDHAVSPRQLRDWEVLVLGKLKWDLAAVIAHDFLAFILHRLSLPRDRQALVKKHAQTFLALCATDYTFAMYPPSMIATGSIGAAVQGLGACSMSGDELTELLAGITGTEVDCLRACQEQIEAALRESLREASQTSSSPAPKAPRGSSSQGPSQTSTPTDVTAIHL
Chain of CDK6/CCND1 (Q00534 whole entry): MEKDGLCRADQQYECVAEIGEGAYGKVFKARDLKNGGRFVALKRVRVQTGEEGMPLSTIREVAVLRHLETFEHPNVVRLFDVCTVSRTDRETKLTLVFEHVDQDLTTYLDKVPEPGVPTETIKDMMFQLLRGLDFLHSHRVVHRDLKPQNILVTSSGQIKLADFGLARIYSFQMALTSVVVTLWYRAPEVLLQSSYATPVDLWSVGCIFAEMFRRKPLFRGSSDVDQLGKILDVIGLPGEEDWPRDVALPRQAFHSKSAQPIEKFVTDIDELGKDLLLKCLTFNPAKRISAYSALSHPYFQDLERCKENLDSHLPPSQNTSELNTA
Chain of CDK6/CCND1 (P24385 whole entry partner): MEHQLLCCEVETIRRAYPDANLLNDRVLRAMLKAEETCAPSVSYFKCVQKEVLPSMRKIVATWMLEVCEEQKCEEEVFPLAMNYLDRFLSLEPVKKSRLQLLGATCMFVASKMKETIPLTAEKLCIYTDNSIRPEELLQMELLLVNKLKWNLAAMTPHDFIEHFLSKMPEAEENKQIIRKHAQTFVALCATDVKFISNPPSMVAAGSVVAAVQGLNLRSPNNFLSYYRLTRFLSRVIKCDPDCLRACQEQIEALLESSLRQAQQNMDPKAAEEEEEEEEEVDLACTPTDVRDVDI

As for `CNS(=O)(=O)c1ccc(Nc2cc3c(C#Cc4cccnc4N)nccc3cn2)c(F)c1` [Ex 467, 4-((5-((2-aminopyridin-3-yl)ethynyl)-2,6-naphthyridin-3-yl)amino)-3-fluoro-N-methylbenzenesulfonamide], the pIC50 is 6.60 to 7.60 at CDK1/CCNB1 (setting [1]), less than 6.60 on CDK6/CCND1 (setting [2]), greater than 7.60 at CDK2/CCNE1 (setting [3]) and less than 6.60 on CDK4/CCND3 (setting [4]).
Take `Nc1ncccc1C#Cc1nccc2cnc(Nc3ccc(S(=O)(=O)Nc4nccc(N5CCNCC5)n4)cc3)cc12` [Ex 468, 4-((5-((2-aminopyridin-3-yl)ethynyl)-2,6-naphthyridin-3-yl)amino)-N-(4-(piperazin-1-yl)pyrimidin-2-yl)benzenesulfonamide]: the pIC50 at CDK1/CCNB1 (setting [5]) was less than 6.60; on CDK6/CCND1 (setting [2]) it was less than 6.60; at CDK2/CCNE1 (setting [6]), 6.60 to 7.60; on CDK4/CCND3 (setting [4]), less than 6.60.
Turning to `CNS(=O)(=O)c1ccc(Nc2cc3c(C#Cc4cccnc4N)nccc3cn2)cc1` [Ex 469, 4-((5-((2-aminopyridin-3-yl)ethynyl)-2,6-naphthyridin-3-yl)amino)-N-methylbenzenesulfonamide], the pIC50 was 6.60 to 7.60 at CDK1/CCNB1 (setting [1]), less than 6.60 at CDK6/CCND1 (setting [2]), greater than 7.60 at CDK2/CCNE1 (setting [3]) and 6.60 to 7.60 at CDK4/CCND3 (setting [7]).
Regarding `CS(=O)(=O)c1ccc(Nc2cc3c(C#Cc4cnn5ccccc45)nccc3cn2)cc1` [Ex 478, N-(4-(methylsulfonyl)phenyl)-5-(pyrazolo[1,5-a]pyridin-3-ylethynyl)-2,6-naphthyridin-3-amine], the pIC50 on CDK1/CCNB1 (setting [5]) was less than 6.60; on CDK6/CCND1 (setting [2]), less than 6.60; at CDK2/CCNE1 (setting [6]), 6.60 to 7.60; at CDK4/CCND3 (setting [4]), less than 6.60.
`CC1(C)C(=O)Nc2cc(C#Cc3nccc4cnc(Nc5ccc(S(C)(=O)=O)cc5)cc34)ccc21` [Ex 486, 3,3-dimethyl-6-((7-((4-(methylsulfonyl)phenyl)amino)-2,6-naphthyridin-1-yl)ethynyl)indolin-2-one]: the pIC50 was 6.60 to 7.60 on CDK1/CCNB1 (setting [1]), less than 6.60 at CDK6/CCND1 (setting [2]), greater than 7.60 on CDK2/CCNE1 (setting [3]) and 6.60 to 7.60 at CDK4/CCND3 (setting [7]).
As for `CS(=O)(=O)c1ccc(Nc2cc3c(C#Cc4cncnc4N)nccc3cn2)cc1` [Ex 492, 5-((4-aminopyrimidin-5-yl)ethynyl)-N-(4-(methylsulfonyl)phenyl)-2,6-naphthyridin-3-amine], the pIC50 on CDK1/CCNB1 (setting [5]) was less than 6.60; at CDK6/CCND1 (setting [2]) it was less than 6.60; at CDK2/CCNE1 (setting [6]) it was 6.60 to 7.60; at CDK4/CCND3 (setting [4]), less than 6.60.
In the case of `COC(=O)c1ccc2c(C#Cc3nccc4cnc(Nc5ccc(S(C)(=O)=O)cc5)cc34)n[nH]c2c1` [Ex 498, methyl 3-((7-((4-(methylsulfonyl)phenyl)amino)-2,6-naphthyridin-1-yl)ethynyl)-1H-indazole-6-carboxylate], the pIC50 at CDK1/CCNB1 (setting [5]), on CDK6/CCND1 (setting [2]), at CDK2/CCNE1 (setting [8]) and on CDK4/CCND3 (setting [4]) was less than 6.60 in each case.
For the compound `COc1ccc(C#Cc2nccc3cnc(Nc4ccc(S(C)(=O)=O)cc4)cc23)cc1F` [Ex 499, 5-((3-fluoro-4-methoxyphenyl)ethynyl)-N-(4-(methylsulfonyl)phenyl)-2,6-naphthyridin-3-amine], the pIC50 was less than 6.60 on CDK1/CCNB1 (setting [5]), less than 6.60 on CDK6/CCND1 (setting [2]), 6.60 to 7.60 at CDK2/CCNE1 (setting [6]) and less than 6.60 on CDK4/CCND3 (setting [4]).
In the case of `Cc1c(C#Cc2nccc3cnc(Nc4ccc(S(C)(=O)=O)cc4)cc23)ccnc1Cl` [Ex 500, 5-((2-chloro-3-methylpyridin-4-yl)ethynyl)-N-(4-(methylsulfonyl)phenyl)-2,6-naphthyridin-3-amine], the pIC50 at CDK1/CCNB1 (setting [5]) is less than 6.60; at CDK6/CCND1 (setting [2]), less than 6.60; on CDK2/CCNE1 (setting [6]) it was 6.60 to 7.60; at CDK4/CCND3 (setting [4]) it was less than 6.60.
`CS(=O)(=O)c1ccc(Nc2cc3c(C#Cc4cnc5[nH]c(=O)oc5c4)nccc3cn2)cc1` [Ex 501, 6-((7-((4-(methylsulfonyl)phenyl)amino)-2,6-naphthyridin-1-yl)ethynyl)oxazolo[4,5-b]pyridin-2(3H)-one]: the pIC50 on CDK1/CCNB1 (setting [5]) was less than 6.60; at CDK6/CCND1 (setting [2]), less than 6.60; at CDK2/CCNE1 (setting [6]), 6.60 to 7.60; on CDK4/CCND3 (setting [4]), less than 6.60.
As to `CS(=O)(=O)c1ccc(Nc2cc3c(C#Cc4cccn5ncnc45)nccc3cn2)cc1` [Ex 502, 5-([1,2,4]triazolo[1,5-a]pyridin-8-ylethynyl)-N-(4-(methylsulfonyl)phenyl)-2,6-naphthyridin-3-amine], the pIC50 on CDK1/CCNB1 (setting [5]) is less than 6.60; on CDK6/CCND1 (setting [2]), less than 6.60; at CDK2/CCNE1 (setting [6]), 6.60 to 7.60; on CDK4/CCND3 (setting [4]), less than 6.60.
As for `CS(=O)(=O)c1ccc(Nc2cc3c(C#Cc4n[nH]c5c(F)cccc45)nccc3cn2)cc1` [Ex 503, 5-((7-fluoro-1H-indazol-3-yl)ethynyl)-N-(4-(methylsulfonyl)phenyl)-2,6-naphthyridin-3-amine], the pIC50 on CDK1/CCNB1 (setting [5]) was less than 6.60; at CDK6/CCND1 (setting [2]) it was less than 6.60; at CDK2/CCNE1 (setting [6]), 6.60 to 7.60; at CDK4/CCND3 (setting [4]), less than 6.60.
As to `CC(C)(C#Cc1nccc2cnc(Nc3ccc(S(C)(=O)=O)cc3)cc12)CO` [Ex 504, 2,2-dimethyl-4-(7-((4-(methylsulfonyl)phenyl)amino)-2,6-naphthyridin-1-yl)but-3-yn-1-ol], the pIC50 at CDK1/CCNB1 (setting [1]) was 6.60 to 7.60; at CDK6/CCND1 (x = IC50 25-250 nM, read-out: CDK6/CCND IC50 (25-250 nM)), 6.60 to 7.60; at CDK2/CCNE1 (setting [3]) it was greater than 7.60; at CDK4/CCND3 (setting [7]) it was 6.60 to 7.60.
For `CC(=O)Nc1ncc(C#Cc2nccc3cnc(Nc4ccc(S(C)(=O)=O)cc4)cc23)s1` [Ex 505, N-(5-((7-((4-(methylsulfonyl)phenyl)amino)-2,6-naphthyridin-1-yl)ethynyl)thiazol-2-yl)acetamide], the pIC50 at CDK1/CCNB1 (setting [5]) is less than 6.60; at CDK6/CCND1 (setting [2]) it was less than 6.60; at CDK2/CCNE1 (setting [6]), 6.60 to 7.60; on CDK4/CCND3 (setting [4]) it was less than 6.60.
In the case of `CS(=O)(=O)c1ccc(Nc2cc3c(C#Cc4ccc(N5CCCC(Cl)(Cl)C5=O)cc4)nccc3cn2)cc1` [Ex 506, 3,3-dichloro-1-(4-((7-((4-(methylsulfonyl)phenyl)amino)-2,6-naphthyridin-1-yl)ethynyl)phenyl)piperidin-2-one], the pIC50 on CDK1/CCNB1 (setting [5]), on CDK6/CCND1 (setting [2]), at CDK2/CCNE1 (setting [8]) and on CDK4/CCND3 (setting [4]) was less than 6.60 throughout.
As to `Cc1cnc(C#Cc2nccc3cnc(Nc4ccc(S(C)(=O)=O)cc4)cc23)cn1` [Ex 507, 5-((5-methylpyrazin-2-yl)ethynyl)-N-(4-(methylsulfonyl)phenyl)-2,6-naphthyridin-3-amine], the pIC50 at CDK1/CCNB1 (setting [5]), at CDK6/CCND1 (setting [2]), at CDK2/CCNE1 (setting [8]) and on CDK4/CCND3 (setting [4]) was less than 6.60 throughout.
As to `CS(=O)(=O)c1ccc(Nc2cc3c(C#Cc4ccnc(F)c4)nccc3cn2)cc1` [Ex 508, 5-((2-fluoropyridin-4-yl)ethynyl)-N-(4-(methylsulfonyl)phenyl)-2,6-naphthyridin-3-amine], the pIC50 at CDK1/CCNB1 (setting [5]) is less than 6.60; at CDK6/CCND1 (setting [2]), less than 6.60; at CDK2/CCNE1 (setting [6]) it was 6.60 to 7.60; at CDK4/CCND3 (setting [4]) it was less than 6.60.
For `Cc1cnc(F)cc1C#Cc1nccc2cnc(Nc3ccc(S(C)(=O)=O)cc3)cc12` [Ex 509, 5-((2-fluoro-5-methylpyridin-4-yl)ethynyl)-N-(4-(methylsulfonyl)phenyl)-2,6-naphthyridin-3-amine], the pIC50 on CDK1/CCNB1 (setting [5]) was less than 6.60; on CDK6/CCND1 (setting [2]) it was less than 6.60; on CDK2/CCNE1 (setting [6]), 6.60 to 7.60; at CDK4/CCND3 (setting [4]), less than 6.60.
On to `COc1ccc(C#Cc2nccc3cnc(Nc4ccc(S(C)(=O)=O)cc4)cc23)nn1` [Ex 514, 5-((6-methoxypyridazin-3-yl)ethynyl)-N-(4-(methylsulfonyl)phenyl)-2,6-naphthyridin-3-amine], for which the pIC50 at CDK1/CCNB1 (setting [5]), at CDK6/CCND1 (setting [2]), on CDK2/CCNE1 (setting [8]) and at CDK4/CCND3 (setting [4]) was less than 6.60 throughout.
In the case of `Cn1cc(C#Cc2nccc3cnc(Nc4ccc(S(C)(=O)=O)cc4)cc23)ncc1=O` [Ex 515, 1-methyl-5-((7-((4-(methylsulfonyl)phenyl)amino)-2,6-naphthyridin-1-yl)ethynyl)pyrazin-2(1H)-one], the pIC50 on CDK1/CCNB1 (setting [5]) is less than 6.60; at CDK6/CCND1 (setting [2]), less than 6.60; at CDK2/CCNE1 (setting [6]) it was 6.60 to 7.60; on CDK4/CCND3 (setting [4]), less than 6.60.
